# From PubChem BioAssay (NCI)
#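 In this assay, cells in 96-well plates receive the compound at five concentrations for 48 hours. Endpoints are linearly interpolated between the surrounding concentrations. TGI: concentration producing complete growth inhibition.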
# Legend:
# Experiment in all cases: growth of human tumour cells (NCI), 48 h
# A549 NSCLC = test system: A549 NSCLC
# BT-549 breast = test system: BT-549 breast
# CCRF-CEM leukemia = test system: CCRF-CEM leukemia
# COLO 205 colon = test system: COLO 205 colon
# EKVX NSCLC = test system: EKVX NSCLC
# HOP-62 NSCLC = test system: HOP-62 NSCLC
# IGROV1 ovarian = test system: IGROV1 ovarian
# MDA-MB-231 breast = test system: MDA-MB-231 breast
# SF-295 CNS = test system: SF-295 CNS
# SK-MEL-5 melanoma = test system: SK-MEL-5 melanoma
# SR leukemia = test system: SR leukemia
# UACC-62 melanoma = test system: UACC-62 melanoma
SMILES,TGI (A549 NSCLC) [µM],TGI (BT-549 breast) [µM],TGI (CCRF-CEM leukemia) [µM],TGI (COLO 205 colon) [µM],TGI (EKVX NSCLC) [µM],TGI (HOP-62 NSCLC) [µM],TGI (IGROV1 ovarian) [µM],TGI (MDA-MB-231 breast) [µM],TGI (SF-295 CNS) [µM],TGI (SK-MEL-5 melanoma) [µM],TGI (SR leukemia) [µM],TGI (UACC-62 melanoma) [µM]
Clc1ccc(C(c2ccccc2Cl)C(Cl)Cl)cc1 (centres undefined),35.4,30.2,47.1,38.9,32.6,39.7,30.7,35.2,35.6,36.1,46.5,34.4
CC(=O)OC12C3C4C1C1C2C3C41OC(C)=O (centres undefined),> 100,> 100,> 100,> 100,> 100,> 100,> 100,> 100,> 100,> 100,> 100,> 100
O=C(/C=C/c1cccc(Oc2ccccc2)c1)NCc1ccc(C(=O)NCc2ccccc2)cc1,> 100,> 100,> 100,> 100,> 100,18.8,> 100,> 100,79.4,> 100,> 100,> 100
NC(N)=NC(N)=Nc1ccc(S(=O)(=O)O)cc1,> 100,> 100,> 100,> 100,> 100,> 100,> 100,> 100,> 100,> 100,> 100,> 100
CN1CN(c2ccccc2)C2(CCN(CC(C)(c3ccc(F)cc3)C3OCCCO3)CC2)C1=O (centres undefined),61.9,19.2,45.9,44.3,54.8,30.7,38.9,60.8,33.4,30.1,30.4,34.6
Cn1c2ccccc2c2c3c(c4c5ccccc5n(C)c4c21)C(=O)NC3=O,> 85.3,> 100,> 100,> 100,> 100,> 55.8,> 71.8,> 52.7,> 76.5,> 100,> 100,> 89.6
COC(=O)C1Cc2cc3c(cc2C1=O)CCCC3 (centres undefined),> 100,> 100,> 100,> 100,> 100,> 100,> 100,> 100,> 100,> 100,> 100,> 100
Cc1nc(CC#N)n[nH]1,> 100,> 100,> 100,> 100,> 100,> 100,> 100,> 100,> 100,> 100,> 100,> 100
COc1ccc(-n2[nH]nc(C(N)=O)c2=O)cc1,> 100,> 100,> 100,> 100,> 100,> 100,> 100,> 100,> 100,> 100,> 100,> 100
O=C(O)CCS/C(=C\C(SCCC(=O)O)c1ccc(Cl)cc1)c1ccc(Cl)cc1 (centres undefined),> 100,87.5,> 100,43.4,> 100,> 100,> 100,> 100,> 100,> 100,78.5,38.4
NC(=O)N/N=C(/CC1C(=O)Oc2ccccc21)c1ccccc1O (centres undefined),> 100,> 100,56.9,> 100,> 100,> 100,> 100,> 100,> 100,> 100,40.8,63.6
COc1ccc2nc(-c3ccccc3)cc(OCC(=O)O)c2c1,> 100,> 100,> 100,> 100,> 100,> 100,> 100,> 100,> 100,> 100,> 100,> 100
